The source of these data is PubChem BioAssay (NCI).

Values joined by “and” are separate entries in the source; they are usually repeats but may differ in a detail not shown here. Equal entries are not always repeated.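 Exposure lasted 48 hours, with cells grown in 96-well plates and compounds tested at five concentrations. At the GI50, growth is halved. TGI: total growth inhibition.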

Test systems include OVCAR-5 ovarian; SF-539 CNS; U251 CNS; RPMI-8226 leukemia; HCT-15 colon; HCC-2998 colon; SK-MEL-28 melanoma; SF-295 CNS; MDA-MB-435; DU-145 prostate.
Holding throughout (test): inhibition of tumour cell growth, NCI panel, 48 h

As to `COc1ccc(CC2NCCc3cc(OC)c(OC)cc32)cc1` (configuration not stated), the TGI in the experiment with OVCAR-5 ovarian, in the experiment on SF-539 CNS, with U251 CNS, with RPMI-8226 leukemia, in the experiment with HCT-15 colon and in the experiment on HCC-2998 colon was above 100 µM throughout. Further, the TGI in the experiment with SK-MEL-28 melanoma and in the experiment with SF-295 CNS was above 100 µM each time.
As for `Cc1ccc(NC(=O)COC(=O)c2cccc3c(=O)c4ccccc4[nH]c23)cc1`, the TGI with SF-539 CNS, in the experiment with U251 CNS, in the experiment on RPMI-8226 leukemia, with HCC-2998 colon, in the experiment with SK-MEL-28 melanoma and with SF-295 CNS was above 100 µM each time.
For the compound `CC(=O)OC1(C#N)CC2OC1C1C2N1C(=O)OC(C)(C)C` (configuration not stated), the TGI with OVCAR-5 ovarian, in the experiment with SF-539 CNS, with U251 CNS, in the experiment with RPMI-8226 leukemia, in the experiment with HCT-15 colon and in the experiment on HCC-2998 colon was above 100 µM in each case. In addition, in the experiment with SK-MEL-28 melanoma, the TGI was above 100 µM.
As to `S=P1(c2ccccc2)Nc2ccc(Cl)cc2N1` (configuration not stated), the TGI in the experiment with OVCAR-5 ovarian, in the experiment on SF-539 CNS, with U251 CNS, with RPMI-8226 leukemia, in the experiment with HCT-15 colon and with HCC-2998 colon was above 100 µM throughout. In addition, the TGI with SK-MEL-28 melanoma and with SF-295 CNS was above 100 µM in each case.
With `COc1ccc(NC(=O)COC(=O)c2cccc3c(=O)c4ccccc4[nH]c23)cc1`, the TGI in the experiment on SF-539 CNS is 37.1 µM; in the experiment with U251 CNS, 44.8 µM; in the experiment on HCC-2998 colon, above 100 µM; in the experiment on SK-MEL-28 melanoma, 84.8 µM; with SF-295 CNS it was 40.2 µM.
Consider `COc1ccc2cc3[n+](cc2c1OC)CCc1cc2c(cc1-3)OCO2`, for which the TGI in the experiment with OVCAR-5 ovarian was > 100 µM and 149 µM; with MDA-MB-435, 25.8 µM and 27 µM and 40.5 µM; with SF-539 CNS, > 100 µM and 83.1 µM; in the experiment with DU-145 prostate it was above 100 µM; in the experiment with RPMI-8226 leukemia, above 100 µM; in the experiment on HCT-15 colon it was above 325 µM. Besides, the TGI in the experiment with SF-295 CNS is > 100 µM and 147 µM. In addition, the GI50 with MDA-MB-435 was 7.35 µM; with SF-539 CNS, 18.1 µM; in the experiment on HCT-15 colon, > 100 µM and 216 µM; with SK-MEL-28 melanoma, 11.2 µM and 17.2 µM.
On to `CCCCCCCCCCCCCC(=O)OC(/C=C/C(C)C)C(O)C(O)C(OC)C(=O)NC1CCCCNC1=O` (configuration not stated), for which the TGI came out at 9.63 µM with OVCAR-5 ovarian; 5.22 µM in the experiment on SF-539 CNS; 4.3 µM in the experiment with U251 CNS; 15.9 µM in the experiment with RPMI-8226 leukemia; 4.8 µM with HCT-15 colon; 4.13 µM in the experiment with HCC-2998 colon. Also, the TGI with SK-MEL-28 melanoma was 5.11 µM; in the experiment with SF-295 CNS, 4.42 µM. Moreover, the GI50 in the experiment with SF-539 CNS was 2.29 µM; in the experiment with U251 CNS it was 2.47 µM; with HCT-15 colon it was 4.25 µM; with HCC-2998 colon, 5.64 µM; in the experiment with SF-295 CNS, 2.92 µM.
As for `COCOCc1cc(OCc2ccccc2)c(OC)cc1Br`, the TGI with OVCAR-5 ovarian, in the experiment on SF-539 CNS, in the experiment on U251 CNS, in the experiment with RPMI-8226 leukemia, with HCT-15 colon and in the experiment with SK-MEL-28 melanoma was above 100 µM throughout. The same compound showed a TGI with SF-295 CNS above 100 µM.
As for `Cc1ccc([N+](=O)[O-])cc1NC(=O)C(=O)Cc1cc(=O)oc2cc(O)ccc12`, the TGI is above 100 µM with OVCAR-5 ovarian; above 100 µM in the experiment on SF-539 CNS; above 100 µM with U251 CNS; 75.3 µM with RPMI-8226 leukemia; above 100 µM in the experiment on HCT-15 colon; above 100 µM in the experiment on HCC-2998 colon. The TGI with SK-MEL-28 melanoma and with SF-295 CNS was above 100 µM throughout.
As for `O=C1Cc2ccccc2N1c1c(Cl)cccc1Cl`, the TGI was above 100 µM in the experiment with OVCAR-5 ovarian; above 100 µM with SF-539 CNS; above 100 µM in the experiment with U251 CNS; 62.7 µM with RPMI-8226 leukemia; above 100 µM with HCT-15 colon; above 100 µM with HCC-2998 colon. Moreover, the TGI with SK-MEL-28 melanoma and with SF-295 CNS was above 100 µM in each case.
In the case of `Cn1c(=O)c2[nH]c(C3CC(=O)CC(c4nc5c([nH]4)c(=O)n(C)c(=O)n5C)N3)nc2n(C)c1=O` (configuration not stated), the TGI in the experiment with OVCAR-5 ovarian, in the experiment with MDA-MB-435, in the experiment with SF-539 CNS, with U251 CNS, in the experiment on DU-145 prostate and in the experiment with RPMI-8226 leukemia was above 100 µM in each case. In addition, the TGI with HCT-15 colon, in the experiment on SK-MEL-28 melanoma and in the experiment with SF-295 CNS was above 100 µM in each case.
In the case of `Cc1cc(NS(=O)(=O)c2ccc(NC(=O)c3cccc4cc5ccccc5nc34)cc2)no1`, the TGI with OVCAR-5 ovarian was 57.3 µM; with SF-539 CNS, 33.3 µM; in the experiment on U251 CNS, 75.5 µM; in the experiment on RPMI-8226 leukemia, 55.9 µM; in the experiment with HCT-15 colon, 35.7 µM; in the experiment on SK-MEL-28 melanoma, 33.1 µM. Besides, the TGI in the experiment on SF-295 CNS was 59.1 µM.
As for `CC1C=CC(C)C2(O)C(=O)NC(O)C12` (configuration not stated), the TGI in the experiment on SF-539 CNS, in the experiment with U251 CNS, with RPMI-8226 leukemia, with HCT-15 colon, in the experiment on HCC-2998 colon and in the experiment on SK-MEL-28 melanoma was above 100 µM each time.
On to `Cc1cc(Cl)ccc1NC(=O)CC1SC(N)=NC1=O` (configuration not stated), for which the TGI in the experiment with OVCAR-5 ovarian, in the experiment with SF-539 CNS, with U251 CNS, in the experiment on RPMI-8226 leukemia, with HCT-15 colon and in the experiment with HCC-2998 colon was above 100 µM each time. The TGI in the experiment with SK-MEL-28 melanoma and in the experiment on SF-295 CNS was above 100 µM in each case.
Consider `COC(=O)c1oc2c(O)c(OC)c(Br)cc2c1C`, for which the GI50 in the experiment on MDA-MB-435 is 29 µM; in the experiment with U251 CNS, 18.2 µM; in the experiment with RPMI-8226 leukemia, 20.9 µM; with HCT-15 colon, 17.6 µM; with SF-295 CNS it was 31 µM. Besides, the TGI stood at 65.4 µM in the experiment on MDA-MB-435; 33.1 µM in the experiment with U251 CNS; 47.8 µM in the experiment with RPMI-8226 leukemia; 35.5 µM with HCT-15 colon; 70.2 µM in the experiment with SF-295 CNS.
As for `C=CCC12CC(=O)C=C1CCC1(C2)OCCO1` (configuration not stated), the TGI in the experiment with SF-539 CNS, in the experiment with U251 CNS, with RPMI-8226 leukemia, in the experiment on HCT-15 colon, in the experiment with HCC-2998 colon and in the experiment with SK-MEL-28 melanoma was above 100 µM in each case.
